Data: patent US10669283B2, “Compound and pharmacologically acceptable salt thereof” (MEIJI SEIKA PHARMA CO., LTD., priority 2016, dated 2020)
Like-named read-outs stand apart in the source and are kept apart here.

How the values were obtained:
PDE4 = PDE4 inhibition, scintillation proximity assay (SPA); format: biochemical;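 as to PDE4 Inhibitory Activity (concentration for the inhibition rate of 50%): A below 100 nM B 100 to below 1000 nM C 1000 nM or more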
Summary of the method: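 Compound pre-diluted 1:10 in 50 mM Tris-HCl pH 7.4, 8.3 mM MgCl2, 1.7 mM EGTA, 3 mg/mL BSA, then incubated with PDE4 and [2,8-3H]-cAMP for 120 min at room temperature. Product captured on ZnSO4-containing YSi-SPA beads for 15 min; radioactivity counted against no-enzyme blank and DMSO control.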

[1] = Hepatic metabolic stability (rat liver microsome method); format: in vitro ADME; conditions: rat liver microsomes 0.5 mg/mL, test substance 1 μM, NADPH 1 mM, 37° C., 30 minutes
Summary of the method: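 Test compound (1 μM) preincubated with rat liver microsomes (0.5 mg/mL) in 100 mM potassium phosphate pH 7.4 at 37° C; NADPH (1 mM) started reaction, acetonitrile stopped it at 0 and 30 min. LC-MS quantitation; % remaining = 30-min/0-min ×100, graded A ≥75%, B 60–<75%, C 45–<60%, D <45%.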

[2] = scintillation proximity assay (SPA), evaluated as classes A, B, C, read-out: PDE4 Inhibitory Activity (concentration for the inhibition rate of 50%)
[3] = scintillation proximity assay, class symbols, read-out: PDE4 Inhibitory Activity

| SMILES | IC50 (PDE4; [2]) | Residual ratio (% remaining for 30-minute reaction) [1] | IC50 (PDE4; [3]) |
| --- | --- | --- | --- |
| OCC(F)(F)Oc1ccc(-c2ccccn2)c2oc(N3CC4CC(C3)N4)nc12 [Example 315, 2-((2-(3,6-Diazabicyclo[3.1.1]heptan-3-yl)-7-(pyridin-2-yl)benzo[d]oxazol-4-yl)oxy)-2,2-difluoroethan-1-ol] | < 100 nM | A (a % remaining rate of 75% or more) |  |
| OC(c1cc(-c2nccs2)c2oc(N3CC4CCC(C3)N4)nc2c1)C(F)F (centres unmarked) [Example 104, 1-(2-(3,8-Diazabicyclo[3.2.1]octan-3-yl)-7-(thiazol-2-yl)benzo[d]oxazol-5-yl)-2,2-difluoroethan-1-ol] | < 100 nM | B (60% or more and less than 75%) |  |
| O=S(=O)(NCCO)c1ccc(-c2nccs2)c2oc(N3CC4CC(C3)N4)nc12 [Example 385, 2-(3,6-diazabicyclo[3.1.1]heptan-3-yl)-N-(2-hydroxyethyl)-7-(thiazol-2-yl) benzo[d]oxazole-4-sulfonamide] |  | A (a % remaining rate of 75% or more) | < 100 nM |
| Cc1cc(C(F)(F)F)c(Oc2ccc(-c3nccs3)c3oc(N4CC5CC(C4)N5)nc23)nn1 [Example 340, 2-(3,6-diazabicyclo[3.1.1]heptan-3-yl)-4-((6-methyl-4-(trifluoro-methyl)pyridazin-3-yl)oxy)-7-(thiazol-2-yl)benzo[d] oxazole] |  | A (a % remaining rate of 75% or more) | < 100 nM |
| OCc1cnc(Oc2ccc(-c3nccs3)c3oc(N4CC5CC(C4)N5)nc23)c(C(F)(F)F)c1 [Example 342, (6-((2-(3,6-diazabicyclo[3.1.1]heptan-3-yl)-7-(thiazol-2-yl)benzo[d]oxazol-4-yl)oxy)-5-(trifluoromethyl)pyridin-3-yl) methanol] |  | B (60% or more and less than 75%) | < 100 nM |
| CC(C)(O)C(F)(F)Oc1c(Cl)cc(-c2nccs2)c2oc(N3CC4CC(C3)N4)nc12 [Example 400, 1-((2-(3,6-diazabicyclo [3.1.1]heptan-3-yl)-5-chloro-7-(thiazol-2-yl)benzo[d]oxazol-4-yl)oxy)-1,1-difluoro-2-methylpropan-2-ol] |  | B (60% or more and less than 75%) | < 100 nM |
| OCC(F)(F)Oc1ccc(-c2ccc(F)cn2)c2oc(N3CC4CC(C3)N4)nc12 [Example 319, 2-((2-(3,6-Diazabicyclo[3.1.1]heptan-3-yl)-7-(5-fluoropyridin-2-yl)benzo[d]oxazol-4-yl)oxy)-2,2-difluoroethan-1-ol] | < 100 nM | A (a % remaining rate of 75% or more) |  |
| CC(C)(O)C(F)(F)Oc1ccc(-c2ccc(Cl)cn2)c2oc(N3CC4CC(C3)N4)nc12 [Example 363, 1-((2-(3,6-diazabicyclo [3.1.1]heptan-3-yl)-7-(5-chloropyridin-2-yl)benzo[d]oxazol-4-yl)oxy)-1,1-difluoro-2-methyl-propan-2-ol] |  | A (a % remaining rate of 75% or more) | < 100 nM |
| c1csc(-c2ccc(OC3COC3)c3nc(N4CC5CC(C4)N5)oc23)n1 [Example 325, 2-(3,6-Diazabicyclo[3.1.1]heptan-3-yl)-4-(oxetan-3-yloxy)-7-(thiazol-2-yl)benzo[d]oxazole] |  | A (a % remaining rate of 75% or more) | < 100 nM |
| O=C(NC1CC1)c1ccc(-c2nccs2)c2oc(N3CC4CC(C3)N4)nc12 [Example 357, 2-(3,6-diazabicyclo [3.1.1]heptan-3-yl)-N-cyclopropyl-7-(thiazol-2-yl) benzo[d]oxazole-4-carboxamide] |  | A (a % remaining rate of 75% or more) | < 100 nM |
| O=C(c1ccc(-c2nccs2)c2oc(N3CC4CC(C3)N4)nc12)N1CCCC1 [Example 360, (2-(3,6-diazabicyclo [3.1.1]heptan-3-yl)-7-(thiazol-2-yl)benzo[d]oxazole-4-yl)(pyrrolidin-1-yl)methanone] |  | A (a % remaining rate of 75% or more) | 100 to 1000 nM |
| CS(=O)(=O)c1ccc(Oc2ccc(-c3nccs3)c3oc(N4CC5CC(C4)N5)nc23)nc1 [Example 352, 2-(3,6-diaza-bicyclo[3.1.1]heptan-3-yl)-4-((5-(methylsulfonyl)pyridin-2-yl)oxy)-7-(thiazol-2-yl)benzo [d]oxazole] |  | A (a % remaining rate of 75% or more) | < 100 nM |
| O=S(=O)(c1ccc(-c2nccs2)c2oc(N3CC4CC(C3)N4)nc12)C(F)(F)F [Example 334, 2-(3,6-diazabicyclo [3.1.1]heptan-3-yl)-7-(thiazol-2-yl)-4-((trifluoromethyl)sulfonyl) benzo[d]oxazole] |  | B (60% or more and less than 75%) | < 100 nM |
